Experimental data published in publication PMC5448077, “Development of an orally available inhibitor of CLK1 for skipping a mutated dystrophin exon in Duchenne muscular dystrophy” (Scientific Reports, 2017).

Assays:
Test in all cases: biochemical
[1] = target: T1, ABL (Homo sapiens, UniProt P00519)
T1 construct: gene ABL1
In short: (§1)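 Reactions at room temperature in HEPES buffer (20 mM, pH 7.5, 0.01% Triton X-100, 2 mM DTT) lasted 1 or 5 h depending on kinase, with substrate peptide and ATP-metal. Phosphorylation read by electrophoretic mobility shift or IMAP polarization; kinase activity computed as P/(P + S).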

[2] = target: ALK(L1196M) (Homo sapiens, UniProt Q9UM73, L1196M)
In short: as §1

[3] = target: T2, CK1γ2 (Homo sapiens, UniProt P78368)
T2 construct: gene CSNK1G2
In short: as §1

[4] = target: T3, CK2α2/β (Homo sapiens, UniProt P19784)
T3 construct: gene CSNK2A2
In short: as §1

[5] = target: T4, CaMK1δ (Homo sapiens, UniProt Q8IU85)
T4 construct: gene CAMK1D
In short: as §1

[6] = target: DDR2 (Homo sapiens, UniProt Q16832)
Sequence of DDR2 (Q16832 whole entry): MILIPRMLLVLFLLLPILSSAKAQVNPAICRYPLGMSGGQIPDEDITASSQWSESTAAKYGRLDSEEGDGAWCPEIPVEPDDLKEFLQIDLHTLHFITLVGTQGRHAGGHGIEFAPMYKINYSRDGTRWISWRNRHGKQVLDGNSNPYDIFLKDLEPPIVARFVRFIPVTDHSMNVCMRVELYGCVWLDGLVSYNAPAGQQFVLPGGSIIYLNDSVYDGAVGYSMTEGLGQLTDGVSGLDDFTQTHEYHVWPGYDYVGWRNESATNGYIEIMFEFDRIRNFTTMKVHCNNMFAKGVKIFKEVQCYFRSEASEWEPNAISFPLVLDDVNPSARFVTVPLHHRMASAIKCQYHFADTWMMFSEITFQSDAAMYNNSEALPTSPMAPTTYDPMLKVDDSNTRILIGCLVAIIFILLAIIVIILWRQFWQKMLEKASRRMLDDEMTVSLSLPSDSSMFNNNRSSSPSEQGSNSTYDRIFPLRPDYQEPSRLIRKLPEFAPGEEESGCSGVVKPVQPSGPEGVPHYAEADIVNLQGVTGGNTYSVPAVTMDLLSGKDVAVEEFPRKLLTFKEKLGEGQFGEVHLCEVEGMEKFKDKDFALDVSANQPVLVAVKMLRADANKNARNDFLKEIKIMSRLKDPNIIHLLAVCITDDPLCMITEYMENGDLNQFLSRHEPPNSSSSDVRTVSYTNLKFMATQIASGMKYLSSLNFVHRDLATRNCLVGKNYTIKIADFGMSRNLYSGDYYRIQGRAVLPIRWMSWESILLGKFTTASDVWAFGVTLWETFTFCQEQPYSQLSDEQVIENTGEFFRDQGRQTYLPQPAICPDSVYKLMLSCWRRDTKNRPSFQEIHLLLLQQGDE
In short: as §1

[7] = target: DYRK1A (Homo sapiens, UniProt Q13627)
In short: as §1

[8] = target: DYRK1B (Homo sapiens, UniProt Q9Y463)
Sequence of DYRK1B (Q9Y463 whole entry): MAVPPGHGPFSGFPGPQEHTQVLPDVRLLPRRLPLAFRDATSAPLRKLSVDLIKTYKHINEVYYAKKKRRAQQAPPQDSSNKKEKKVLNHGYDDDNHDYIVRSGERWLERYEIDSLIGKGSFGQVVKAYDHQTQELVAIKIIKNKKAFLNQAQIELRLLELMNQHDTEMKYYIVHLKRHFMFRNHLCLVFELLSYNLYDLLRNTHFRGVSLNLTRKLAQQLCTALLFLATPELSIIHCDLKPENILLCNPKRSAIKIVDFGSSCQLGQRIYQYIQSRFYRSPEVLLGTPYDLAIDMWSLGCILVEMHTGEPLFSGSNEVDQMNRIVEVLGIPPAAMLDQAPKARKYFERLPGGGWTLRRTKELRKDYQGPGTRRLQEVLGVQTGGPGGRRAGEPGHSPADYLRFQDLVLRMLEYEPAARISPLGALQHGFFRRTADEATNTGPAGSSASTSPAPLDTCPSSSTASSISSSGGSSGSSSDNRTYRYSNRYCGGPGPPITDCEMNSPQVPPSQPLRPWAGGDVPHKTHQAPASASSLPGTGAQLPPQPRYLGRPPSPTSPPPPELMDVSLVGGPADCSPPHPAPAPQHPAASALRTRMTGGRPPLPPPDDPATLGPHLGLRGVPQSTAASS
In short: as §1

[9] = target: EGFR(L858R) (Homo sapiens, UniProt P00533, L858R)
Sequence of EGFR(L858R) (P00533 whole entry L858R): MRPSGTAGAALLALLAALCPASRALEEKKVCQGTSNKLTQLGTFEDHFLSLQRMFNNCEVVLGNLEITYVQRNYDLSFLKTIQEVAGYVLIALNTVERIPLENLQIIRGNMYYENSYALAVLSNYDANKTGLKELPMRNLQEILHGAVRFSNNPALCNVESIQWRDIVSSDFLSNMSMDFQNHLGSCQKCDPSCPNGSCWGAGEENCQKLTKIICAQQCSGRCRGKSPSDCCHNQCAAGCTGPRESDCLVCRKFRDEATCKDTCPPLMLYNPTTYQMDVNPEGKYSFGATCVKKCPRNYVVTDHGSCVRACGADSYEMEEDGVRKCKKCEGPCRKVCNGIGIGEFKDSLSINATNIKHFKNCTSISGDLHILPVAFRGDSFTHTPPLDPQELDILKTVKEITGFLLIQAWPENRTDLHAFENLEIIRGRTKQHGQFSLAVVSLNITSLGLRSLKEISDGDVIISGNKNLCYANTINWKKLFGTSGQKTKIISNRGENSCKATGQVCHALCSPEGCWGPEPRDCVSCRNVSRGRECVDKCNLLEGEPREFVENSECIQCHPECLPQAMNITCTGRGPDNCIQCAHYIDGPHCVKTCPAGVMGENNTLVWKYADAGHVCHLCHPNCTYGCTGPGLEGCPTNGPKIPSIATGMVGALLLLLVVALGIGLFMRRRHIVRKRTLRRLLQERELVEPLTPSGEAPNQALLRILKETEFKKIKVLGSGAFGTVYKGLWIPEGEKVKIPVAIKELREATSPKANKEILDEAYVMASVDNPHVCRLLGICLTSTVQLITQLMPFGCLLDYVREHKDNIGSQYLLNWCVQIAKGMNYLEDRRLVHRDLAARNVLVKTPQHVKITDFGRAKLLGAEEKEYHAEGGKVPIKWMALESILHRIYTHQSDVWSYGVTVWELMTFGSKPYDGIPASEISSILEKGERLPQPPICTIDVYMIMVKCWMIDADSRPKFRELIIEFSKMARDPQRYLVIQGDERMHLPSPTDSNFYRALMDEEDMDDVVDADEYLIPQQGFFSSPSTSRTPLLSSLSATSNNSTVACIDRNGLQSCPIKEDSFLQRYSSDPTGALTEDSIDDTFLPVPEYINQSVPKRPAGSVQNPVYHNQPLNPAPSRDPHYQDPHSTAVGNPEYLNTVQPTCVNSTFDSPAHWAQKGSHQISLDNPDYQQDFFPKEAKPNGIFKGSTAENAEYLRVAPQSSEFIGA
In short: as §1

[10] = target: EPHA5 (Homo sapiens, UniProt P54756)
In short: as §1

[11] = target: FES (Homo sapiens, UniProt P07332)
Sequence of FES (P07332 whole entry): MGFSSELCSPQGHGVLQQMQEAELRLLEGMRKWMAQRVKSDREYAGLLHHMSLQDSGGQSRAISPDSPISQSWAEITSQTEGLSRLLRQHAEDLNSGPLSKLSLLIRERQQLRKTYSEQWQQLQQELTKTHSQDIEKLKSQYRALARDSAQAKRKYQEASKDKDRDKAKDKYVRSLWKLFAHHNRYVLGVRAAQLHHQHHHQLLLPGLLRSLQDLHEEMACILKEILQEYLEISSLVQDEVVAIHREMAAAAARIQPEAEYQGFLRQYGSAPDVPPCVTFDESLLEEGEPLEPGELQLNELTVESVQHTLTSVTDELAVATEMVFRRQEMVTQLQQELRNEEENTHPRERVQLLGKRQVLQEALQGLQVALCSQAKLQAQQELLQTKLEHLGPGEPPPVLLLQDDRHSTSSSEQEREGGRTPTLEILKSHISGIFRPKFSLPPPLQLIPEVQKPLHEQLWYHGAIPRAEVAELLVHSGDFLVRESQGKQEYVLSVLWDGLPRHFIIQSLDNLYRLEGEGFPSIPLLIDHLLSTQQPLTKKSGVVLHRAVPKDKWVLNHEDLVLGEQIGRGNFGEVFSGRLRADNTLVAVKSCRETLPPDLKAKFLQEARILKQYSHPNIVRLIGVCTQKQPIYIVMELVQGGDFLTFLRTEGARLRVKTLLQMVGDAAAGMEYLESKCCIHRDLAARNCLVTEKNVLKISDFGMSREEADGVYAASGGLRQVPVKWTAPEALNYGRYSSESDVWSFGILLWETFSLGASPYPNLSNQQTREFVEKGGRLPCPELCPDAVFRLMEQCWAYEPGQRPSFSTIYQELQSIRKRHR
In short: as §1

[12] = target: FGFR1 (Homo sapiens, UniProt P11362)
In short: as §1

[13] = target: FGFR1(V561M) (Homo sapiens, UniProt P11362, V561M)
In short: as §1

[14] = target: FGFR3(K650M) (Homo sapiens, UniProt P22607, K650M)
In short: as §1

[15] = target: FLT1 (Homo sapiens, UniProt P17948)
In short: as §1

[16] = target: FRK (Homo sapiens, UniProt P42685)
In short: as §1

[17] = target: T5, GSK3α (Homo sapiens, UniProt P49840)
T5 construct: gene GSK3A
In short: as §1

[18] = target: T6, HER2 (Homo sapiens, UniProt P04626)
T6 construct: gene ERBB2
In short: as §1

[19] = target: Haspin (Homo sapiens, UniProt Q8TF76)
In short: as §1

[20] = target: KIT(D816Y) (Homo sapiens, UniProt P10721, D816Y)
In short: as §1

[21] = target: LTK (Homo sapiens, UniProt P29376)
Sequence of LTK (P29376 whole entry): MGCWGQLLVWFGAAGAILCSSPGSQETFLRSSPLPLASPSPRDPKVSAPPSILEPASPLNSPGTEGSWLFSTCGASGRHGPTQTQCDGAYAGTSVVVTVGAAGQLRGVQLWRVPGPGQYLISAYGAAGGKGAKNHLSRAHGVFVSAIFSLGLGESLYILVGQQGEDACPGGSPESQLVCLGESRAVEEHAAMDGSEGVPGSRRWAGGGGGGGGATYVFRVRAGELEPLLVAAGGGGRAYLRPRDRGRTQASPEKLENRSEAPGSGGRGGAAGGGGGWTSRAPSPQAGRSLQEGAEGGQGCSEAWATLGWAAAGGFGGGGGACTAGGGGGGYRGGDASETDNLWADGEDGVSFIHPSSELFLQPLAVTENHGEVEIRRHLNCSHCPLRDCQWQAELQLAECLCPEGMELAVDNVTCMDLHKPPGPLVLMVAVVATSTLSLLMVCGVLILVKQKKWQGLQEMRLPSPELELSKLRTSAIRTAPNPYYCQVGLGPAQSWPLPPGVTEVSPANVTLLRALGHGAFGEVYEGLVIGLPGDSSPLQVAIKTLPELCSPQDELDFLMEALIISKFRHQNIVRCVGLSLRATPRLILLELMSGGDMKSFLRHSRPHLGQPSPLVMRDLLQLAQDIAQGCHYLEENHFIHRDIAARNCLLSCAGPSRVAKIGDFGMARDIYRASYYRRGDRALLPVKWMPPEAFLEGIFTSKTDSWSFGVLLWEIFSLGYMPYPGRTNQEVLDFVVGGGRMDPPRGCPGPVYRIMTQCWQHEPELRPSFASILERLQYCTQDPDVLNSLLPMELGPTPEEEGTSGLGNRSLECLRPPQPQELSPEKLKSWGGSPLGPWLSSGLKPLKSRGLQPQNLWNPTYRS
In short: as §1

[22] = target: MAPKAPK3 (Homo sapiens, UniProt Q16644)
In short: as §1

[23] = target: T7, MST1 (Homo sapiens, UniProt Q13043)
T7 construct: gene STK4
In short: as §1

[24] = target: PAK5 (Homo sapiens, UniProt Q9P286)
In short: as §1

[25] = target: T8, PDGFRα(V561D) (Homo sapiens, UniProt P16234, V561D)
T8 construct: gene PDGFRA
In short: as §1

[26] = target: T9, PKCζ (Homo sapiens, UniProt Q05513)
T9 construct: gene PRKCZ
In short: as §1

[27] = target: T10, PKD3 (Homo sapiens, UniProt O94806)
T10 construct: gene PRKD3
In short: as §1

[28] = target: SRPK1 (Homo sapiens, UniProt Q96SB4)
In short: as §1

[29] = target: T11, TSSK1 (Homo sapiens, UniProt Q9BXA7)
T11 construct: gene TSSK1B
In short: as §1

[30] = target: TSSK2 (Homo sapiens, UniProt Q96PF2)
In short: as §1

[31] = target: T12, skMLCK (Homo sapiens, UniProt Q9H1R3)
T12 construct: gene MYLK2
T12 sequence (Q9H1R3 whole entry): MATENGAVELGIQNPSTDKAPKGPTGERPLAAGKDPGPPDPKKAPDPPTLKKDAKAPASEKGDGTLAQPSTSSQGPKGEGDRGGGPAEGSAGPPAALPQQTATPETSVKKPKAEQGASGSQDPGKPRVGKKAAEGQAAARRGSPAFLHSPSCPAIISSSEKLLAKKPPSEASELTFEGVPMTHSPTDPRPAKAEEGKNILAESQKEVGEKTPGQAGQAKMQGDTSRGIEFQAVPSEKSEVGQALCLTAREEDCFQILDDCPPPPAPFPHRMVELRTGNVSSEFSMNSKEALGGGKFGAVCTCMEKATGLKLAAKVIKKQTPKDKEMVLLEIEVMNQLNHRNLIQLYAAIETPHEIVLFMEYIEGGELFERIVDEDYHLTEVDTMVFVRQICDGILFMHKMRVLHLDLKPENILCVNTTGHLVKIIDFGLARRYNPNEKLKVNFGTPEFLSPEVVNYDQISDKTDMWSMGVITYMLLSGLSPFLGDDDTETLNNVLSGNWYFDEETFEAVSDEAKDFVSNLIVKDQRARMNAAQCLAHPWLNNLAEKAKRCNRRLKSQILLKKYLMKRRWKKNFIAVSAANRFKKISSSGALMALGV
In short: as §1

`c1cc(-c2ccc3[nH]ncc3c2)ccn1` [TG693, 5-(4-pyridinyl)-1H-indazole] gave an inhibition at 1 µM [1] of -1.3%, an inhibition at 1 µM [2] of 2.6% and an inhibition at 1 µM [3] of -3.2%. It also gave an inhibition at 1 µM [4] of 14.6%, an inhibition at 1 µM [5] of 7% and an inhibition at 1 µM [6] of -2.2%. The inhibition at 1 µM [7] was 84.3%, the inhibition at 1 µM [8] was 76.1% and the inhibition at 1 µM [9] was 0.4%. The inhibition at 1 µM [10] was -7.5%, the inhibition at 1 µM [11] was 1.3% and the inhibition at 1 µM [12] was 6.9%. It also gave an inhibition at 1 µM [13] of -11.6%, an inhibition at 1 µM [14] of 7.8% and an inhibition at 1 µM [15] of 5.9%. For the same compound, the inhibition at 1 µM [16] was -2.3%, the inhibition at 1 µM [17] was 12.6% and the inhibition at 1 µM [18] was -3.8%. For the same compound, the inhibition at 1 µM [19] was 92.8%, the inhibition at 1 µM [20] was -1.7% and the inhibition at 1 µM [21] was 3%. It also gave an inhibition at 1 µM [22] of -13.1%, an inhibition at 1 µM [23] of -1.9% and an inhibition at 1 µM [24] of -14%. The inhibition at 1 µM [25] was 2.7%, the inhibition at 1 µM [26] was -9.7% and the inhibition at 1 µM [27] was -9%. The inhibition at 1 µM [28] was 0.6%, the inhibition at 1 µM [29] was 3% and the inhibition at 1 µM [30] was -0.1%. It also gave an inhibition at 1 µM [31] of 0.9%.
